This passage reports Ki and IC50 results from patent publication US9834543B2, “Indazoles and use thereof” (Purdue Pharma L.P., priority 2013, dated 2017).

Like-named read-outs stand apart in the source and are kept apart here.

The target of test [1] is hNav1.7 (Homo sapiens (Human), UniProt Q15858). The experiment in a line: EP (electrophysiology) assay, whole-cell patch clamp in hNav1.7 expressing HEK-293 cells. The format is cell-based. To be noted: affinity for the inactivated state of the channel; hNav1.7 HEK-293; read-out: Nav1.7 Activity (μM) EP assay Ki.
Description: Cells Manual Electrophysiology: The hNav1.7 expressing HEK-293 cells are plated on 35 mm culture dishes pre-coated with poly-D-lysine in standard DMEM culture media (Mediatech, Inc., Herndon, Va.) and incubated in a 5% CO2 incubator at 37° C. Cultured cells are used approximately 12-48 h after plating.
The hNav1.7 expressing HEK-293 cells are plated on tissue culture flasks in standard DMEM culture media (Mediatech, Inc.) and incubated in a 5% CO2 incubator at 37° C. Cultured cells are used approximately 12-48 hours after plating.
On the day of experimentation, the 35 mm dish is placed on the stage of an inverted microscope equipped with a perfusion system that continuously perfuses the culture dish with fresh recording media. A gravity driven superfusion system is used to apply test solutions directly to the cell under evaluation. This “shooter” system consists of an array of glass pipette glass connected to a motorized horizontal translator. The outlet of the shooter is positioned approximately 100 μm from the cell of interest.
Gigaseals are formed and the whole-cell configuration is established in voltage clamp mode, and membrane currents generated by hNav1.7 channels are recorded. […] Signals are sampled at 50 kHz and low pass filtered at 3 kHz.
Gigaseals are formed and the whole-cell configuration is established in voltage clamp mode, and membrane currents generated by hNav1.7 are recorded. […]
After a stable baseline is established, the test compound is applied and block of the current elicited by the test pulse assessed. […] An estimate of the Ki is calculated as follows: Ki=[drug]*{FR/(1−FR)}, Eq. 1 where [drug] is the concentration of a drug, and FR=I(after drug)/I(control), Eq. 2
where I is the peak current amplitude. If multiple concentrations were used, Ki is determined from the fit of a logistic equation to FRs plotted against corresponding drug concentrations. […]
The compound testing protocol is a series of 10 ms depolarizations from the Vh1 (determined from the SSIN) to the Vt (determined from the I-V protocol) repeated every 10-15 seconds. […]
The target in test [2] is human Nav1.7 (Homo sapiens (Human), UniProt Q15858). In words: FLIPR or FLIPR TETRA sodium dye assay with KCl and test article pre-incubation (sodium mobilization). The test is classed as cell-based.
human Nav1.7, sequence (Q15858 with tags, fused parts or gaps limits assumed): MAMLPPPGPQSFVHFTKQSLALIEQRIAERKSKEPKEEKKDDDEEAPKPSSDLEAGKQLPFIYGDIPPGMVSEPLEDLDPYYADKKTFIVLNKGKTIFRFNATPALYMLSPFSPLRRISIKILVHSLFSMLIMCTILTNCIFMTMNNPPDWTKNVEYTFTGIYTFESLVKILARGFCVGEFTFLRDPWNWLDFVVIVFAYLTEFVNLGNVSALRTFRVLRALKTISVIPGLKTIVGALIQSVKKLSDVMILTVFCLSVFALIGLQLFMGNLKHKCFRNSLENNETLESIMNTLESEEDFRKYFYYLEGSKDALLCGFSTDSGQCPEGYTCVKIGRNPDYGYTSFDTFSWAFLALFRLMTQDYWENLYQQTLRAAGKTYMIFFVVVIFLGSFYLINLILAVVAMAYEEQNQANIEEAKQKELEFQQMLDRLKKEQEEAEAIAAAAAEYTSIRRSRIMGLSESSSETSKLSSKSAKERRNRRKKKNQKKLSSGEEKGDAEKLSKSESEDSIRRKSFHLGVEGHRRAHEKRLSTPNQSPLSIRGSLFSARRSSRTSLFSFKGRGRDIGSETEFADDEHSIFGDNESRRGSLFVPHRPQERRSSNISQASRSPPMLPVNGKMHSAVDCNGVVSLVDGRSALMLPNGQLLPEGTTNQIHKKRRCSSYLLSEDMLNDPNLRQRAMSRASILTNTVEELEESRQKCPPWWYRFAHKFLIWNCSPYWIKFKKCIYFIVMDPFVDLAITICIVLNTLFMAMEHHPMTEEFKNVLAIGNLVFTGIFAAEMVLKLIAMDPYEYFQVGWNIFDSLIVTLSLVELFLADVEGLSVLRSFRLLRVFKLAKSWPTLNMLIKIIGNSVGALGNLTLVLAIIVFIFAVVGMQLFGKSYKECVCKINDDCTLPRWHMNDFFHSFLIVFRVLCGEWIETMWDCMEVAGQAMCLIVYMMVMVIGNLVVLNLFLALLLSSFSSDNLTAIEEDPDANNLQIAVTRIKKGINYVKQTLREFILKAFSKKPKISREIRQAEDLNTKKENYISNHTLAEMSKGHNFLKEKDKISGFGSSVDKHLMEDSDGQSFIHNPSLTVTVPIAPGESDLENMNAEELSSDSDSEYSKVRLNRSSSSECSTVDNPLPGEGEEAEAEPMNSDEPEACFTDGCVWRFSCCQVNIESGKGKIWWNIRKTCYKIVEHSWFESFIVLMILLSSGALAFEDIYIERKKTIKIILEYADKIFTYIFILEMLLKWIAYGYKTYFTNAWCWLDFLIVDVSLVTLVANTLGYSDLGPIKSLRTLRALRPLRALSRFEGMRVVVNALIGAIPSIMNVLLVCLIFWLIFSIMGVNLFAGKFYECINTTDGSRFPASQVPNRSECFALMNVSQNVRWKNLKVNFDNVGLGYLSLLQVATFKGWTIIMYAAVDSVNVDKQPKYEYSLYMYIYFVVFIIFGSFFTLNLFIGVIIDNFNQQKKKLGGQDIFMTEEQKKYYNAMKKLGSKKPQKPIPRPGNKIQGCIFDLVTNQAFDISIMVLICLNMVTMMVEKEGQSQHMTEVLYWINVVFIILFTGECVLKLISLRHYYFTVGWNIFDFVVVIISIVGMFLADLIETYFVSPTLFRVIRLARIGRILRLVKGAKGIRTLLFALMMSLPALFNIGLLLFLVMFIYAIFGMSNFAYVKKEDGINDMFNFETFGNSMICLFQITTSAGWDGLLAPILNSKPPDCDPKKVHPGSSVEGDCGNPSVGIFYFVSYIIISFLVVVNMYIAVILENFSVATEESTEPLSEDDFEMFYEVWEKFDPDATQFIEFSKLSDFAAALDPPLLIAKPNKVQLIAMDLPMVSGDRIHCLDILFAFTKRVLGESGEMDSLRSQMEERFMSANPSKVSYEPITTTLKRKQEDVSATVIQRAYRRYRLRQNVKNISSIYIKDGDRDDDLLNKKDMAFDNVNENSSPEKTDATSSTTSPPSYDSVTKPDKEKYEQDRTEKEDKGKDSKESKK

hNav1.7, sequence (Q15858 other isoform, or with tags, fused parts or gaps): as the sequence (Q15858 with tags, fused parts or gaps limits assumed) above

Take `Cn1ncc2c(Oc3ccc(S(=O)(=O)Nc4nncs4)cc3)ccc(Cl)c21` [Compound 42, 4-((7-chloro-1-methyl-1H-indazol-4-yl)oxy)-N-(1,3,4-thiadiazol-2-yl)benzenesulfonamide]: the Ki in test [1] is 9.01 ± 4.76 µM. In addition, the IC50 in test [2] was greater than 20 µM.

For `Cn1ncc2c(Oc3ccc(-c4nc(C(N)=O)cc([C@H](O)CO)n4)cc3)ccc(Cl)c21` [Compound 34, (S)-2-(4-((7-chloro-1-methyl-1H-indazol-4-yl)oxy)phenyl)-6-(1,2-dihydroxyethyl)pyrimidine-4-carboxamide], the Ki in test [1] came out at 0.12 ± 0.027 µM. In test [2], half-maximal inhibition (IC50) required 0.157 ± 0.023 µM. As to `Cn1ncc2c(Oc3ccc(-c4cc([C@H](O)CO)cc(C(N)=O)n4)cc3)ccc(Cl)c21` [Compound 38, (S)-6-(4-((7-chloro-1-methyl-1H-indazol-4-yl)oxy)phenyl)-4-(1,2-dihydroxyethyl)picolinamide], the IC50 in test [2] was determined as 0.45 ± 0.026 µM. `Cn1ncc2c(Oc3cc(F)c(S(=O)(=O)Nc4nncs4)cc3Cl)ccc(Cl)c21` [Compound 41, 5-chloro-4-((7-chloro-1-methyl-1H-indazol-4-yl)oxy)-2-fluoro-N-(1,3,4-thiadiazol-2-yl)benzenesulfonamide]: the half-inhibitory concentration (IC50) in test [2] (recombinant human Nav1.7 in HEK293, veratridine and scorpion venom agonists) is greater than 20 µM. In test [2], `Cn1ncc2c(Oc3ccc(-c4cccc(C(N)=O)n4)cc3)ccc(Cl)c21` [Compound 22, 6-(4-((7-chloro-1-methyl-1H-indazol-4-yl)oxy)phenyl)picolinamide] showed an IC50 of 0.53 ± 0.034 µM. With `Cn1ncc2c(Oc3ccc(-c4cc([C@H](O)CO)cc(C(N)=O)n4)cc3)ccc(F)c21` [Compound 39, (S)-4-(1,2-dihydroxyethyl)-6-(4-((7-fluoro-1-methyl-1H-indazol-4-yl)oxy)phenyl)picolinamide], in test [1], the Ki came out at 0.47 ± 0.046 µM. Half-maximal inhibition in test [2] (IC50) was put at 0.797 ± 0.051 µM. In the case of `Cn1ncc2c(Oc3ccc(-c4nc(N[C@H]5CCNC5=O)cc(C(N)=O)n4)cc3)ccc(Cl)c21` [Compound 20, (S)-2-(4-((7-chloro-1-methyl-1H-indazol-4-yl)oxy)phenyl)-6-((2-oxopyrrolidin-3-yl)amino)pyrimidine-4-carboxamide], the half-maximal inhibitory concentration (IC50) in test [2] amounted to 0.405 ± 0.06 µM. Same read-out and setting: the result for `Cn1ncc2c(Oc3ccc(-c4cc([C@@H](O)CO)cc(C(N)=O)n4)cc3)ccc(F)c21` [Compound 40, (R)-4-(1,2-dihydroxyethyl)-6-(4-((7-fluoro-1-methyl-1H-indazol-4-yl)oxy)phenyl)picolinamide] reads 0.596 ± 0.076 µM.
